Measurements taken from patent US7235548B2, “Compounds and their use as positive AMPA receptor modulators” (NeuroSearch A/S, priority 1998, dated 2007).

Biological target: ionotropic quisqualate (AMPA) receptors
Experiment: In vitro inhibition of 3H-AMPA binding
Settings: 5 nM 3H-AMPA, rat cerebral cortex membranes, 30 min at 2° C.; read-out: IC50 (concentration of the test substance which inhibits the specific binding of 3H-AMPA by 50%)
Description: L-glutamate (GLU) is the major excitatory neurotransmitter in the mammalian central nervous system. From electrophysiological- and binding studies, there appear to be at least three subtypes of GLU receptors, tentatively named N-methyl-D-aspartate (NMDA)-, quisqualate- and kainate receptors. GLU receptor subtypes sensitive to quisqualate and kainate as a group are often referred to as non-NMDA receptors. Receptor binding studies using the labelled agonists ^3H-AMPA (α-amino-3-hydroxy-5-methyl-4-isoxazolepropionic acid) (for quisqualate receptors) and ^3H-kainate (for kainate receptors) have shown different antagonist selectivities and regional distribution. AMPA has been known for several years to be a potent and selective agonist at the traditionally named quisqualate receptors. Activation of quisqualate receptors by AMPA is associated with Na^+ influx and K^+ efflux leading to depolarization.
The non-NMDA receptors have recently been reclassified to include the quisqualate activated metabotropic receptor type, linked to the inositol triphosphate and diacylglycerate metabolism. […] Selective activation of the metabotropic type has been claimed for trans-ACPD. Recently, the potent and competitive non-NMDA receptor antagonists CNQX and NBQX have been described, and CNQX have been reported not to block the effect of quisqualate at the metabotropic receptor subtype. ^3H-AMPA is a selective radioligand for labelling the ionotropic quisqualate (AMPA) receptors.
Preparations are performed at 0–4° C. unless otherwise indicated. Cerebral cortex from male Wistar rats (150–200 g) is homogenized for 5–10 sec in 20 ml Tris-HCl (30 mM, pH 7.4) using an Ultra-Turrax homogenizer. The suspension is centrifuged at 27,000×g for 15 min and the pellet is washed three times with buffer (centrifuged at 27,000×g for 10 min). The washed pellet is homogenized in 20 ml of buffer and incubated on a water bath (37° C.) for 30 min to remove endogenous glutamate and then centrifuged for 10 min at 27,000×g. The pellet is then homogenized in buffer and centrifuged at for 10 min at 27,000×g. The final pellet is resuspended in 30 ml buffer and the preparation is frozen and stored at −20° C.
The membrane preparation is thawed and centrifuged at 2° C. for 10 min at 27,000×g for 10 min. The pellet is washed twice with 20 ml 30 mM Tris-HCl containing 2.5 mM CaCl2, pH 7.4 using an Ultra-Turrax homogenizer and centrifuged for 10 min at 27,000×g. The final pellet is resuspended in 30 mM Tris-HCl containing 2.5 mM CaCl2 and 100 mM KSCN, pH 7.4 (100 ml per g of original tissue) and used for binding assays. Aliquots of 0.5 (0.2) ml are added to 25 (20) μl of test solution and 25(20) μl of ^3H-AMPA (5 nM, final concentration), mixed and incubated for 30 min at 2° C. Non-specific binding is determined using L-glutamate (0.6 mM, final concentration). After incubation the 550 μl samples are added 5 ml of ice-cold buffer and poured directly onto Whatman GF/C glass fibre filters under suction and immediately washed with 5 ml of ice-cold buffer. The 240 μl samples are filtered over glass fibre filter using a Skatron cell harvrester. The filters are washed with 3 ml ice-cold buffer. The amount of radioactivity on the filters is determined by conventional liquid scintillation counting. Specific binding is total binding minus non-specific binding.
The test value will be given as the IC50 (the concentration (μM) of the test substance which inhibits the specific binding of ^3H-AMPA by 50%)

**Q.** Which IC50 does the source give for `NS(=O)(=O)c1ccc2c(c1)S(=O)(=O)NC(C1CCCCC1)N2` (stereo not drawn) [Compound 44, 3-Cyclohexyl-7-sulfamoyl-1,2,3,4-tetrahydro-1,2,4-benzothiadiazine-1,1-dioxide] here?
**A.** 3.5 µM

**Q.** Which IC50 does the source give for `CS(=O)(=O)N1CCN(S(=O)(=O)c2ccc3c(c2)S(=O)(=O)NC(C2CCCCC2)N3)CC1` (stereo not drawn) [Compound 62, 3-Cyclohexyl-7-(4′-methylsulfonylpiperazino)sulfonyl-1,2,3,4-tetrahydro-1,2,4-benzothiadiazine-1,1-dioxide] here?
**A.** 6 µM

**Q.** For `CC(=NO)c1ccc2c(c1)S(=O)(=O)NC(C1CCCCC1)N2` (stereo not drawn) [Compound 14, 3-Cyclohexyl-7-(1-hydroxyiminoethyl)-1,2,3,4-tetrahydro-1,2,4-benzothiadiazine-1,1-dioxide], which IC50 is on record?
**A.** 45 µM

**Q.** For `CCN(CC)S(=O)(=O)c1ccc2c(c1)S(=O)(=O)NC(C1CCCCC1)N2` (stereo not drawn) [Compound 48, 3-Cyclohexyl-7-(N,N-diethylamino)sulfonyl-1,2,3,4-tetrahydro-1,2,4-benzothiadiazine-1,1-dioxide], which IC50 is on record?
**A.** 4.4 µM

**Q.** For `O=S1(=O)NC(C2CCCCC2)Nc2ccc(S(=O)(=O)N3CCCC3)cc21` (stereo not drawn) [Compound 49, 3-Cyclohexyl-7-pyrrolidinosulfonyl-1,2,3,4-tetrahydro-1,2,4-benzothiadiazine-1,1-dioxide], which IC50 is on record?
**A.** 17 µM

System: AMPA receptors
Experiment: AMPA evoked single neuron spike activity in rat hippocampus (iontophoretic application of AMPA), in vivo
Settings: 10 mg kg^−1 i.v., rat hippocampus
Description: Evaluation of the in vivo effects of positive AMPA modulators (PAMs) on the AMPA evoked spike activity in rat hippocampus. Hippocampal single neuron spike activity is strongly influenced by excitatory input, and iontophoretic application of AMPA induces spike activity in vivo in a dose-dependent manner ([…] et al. 1998). […] PAMs potentate AMPA receptor activation in vitro, and if this mechanism also operates in vivo, the i.v. injection of an PAM should enhance AMPA evoked spike activity. Thus, the aim of this study was to test the in vivo effect of a group of in vitro active PAMs. This have been done by studying their ability to enhances AMPA evoked spike activity after i.v. administration. Experiments were performed on male Wistar rats (M & B, Denmark) weighing 280-380 g, housed in two per cage with free access to food and water. […] Additional anaesthetic was given i.v. if the rat responded to a pinch of the back foot. The trachea was cannulated and the rats were placed in a stereotaxic frame and ventilated by a rodent ventilator (Ugo Basile, Comerio-Varese, Italy). Core body temperature was maintained at 37.5° C. by a DC heating pad. The left and dorsal part of the parietal bone was removed by craniotomy and the dura was withdrawn exposing the pia mater and underlying brain, covered with 0.9% NaCl. AMPA (Sigma, USA) was dissolved at 10 mM in 0.2 M NaCl. NMDA (Sigma, USA) was dissolved at 100 mM in 100 mM NaCl. Both solutions were adjusted to pH 7.5-8.0 with NaOH. COMPOUND 61 was dissolved in 200 mM CH3SO3^- Na^+ at a contration of 10 mM for iontophoretic application ([…]) and in isotonic glucose (278 mM) for i.v. administration. Cyclothiazide, COMPOUND 63, COMPOUND 56, COMPOUND 115 and COMPOUND 114 were all dissolved at in 5% chremophore solution at a concentration of 5 mg ml^-1. Evoked neuronal spike activity was analyzed on-line by a computer, saving single spikes and time of event. Neuronal spike activity (number of action potentials s^-1) was monitored on a pulse rate histogram together with indicators for AMPA, COMPOUND 61 and vehicle application. Extracellular recordings of single hippocampal neuron spikes were made with five-barrel glass microelectrodes (5B120F-6, World Precision Instruments Inc., Sarasota, Fla., USA) with a tip diameter of 10-12 μm. The individual barrels were filled with 5 M NaCl (recording), 400 mM NaCl (current balancing), 10 mM COMPOUND 61 in 200 mM CH3SO3^- Na^+ (pH 4.7), 200 mM CH3SO3^- Na^+ (pH 4.7, Vehicle), and the last barrel was filled with the AMPA. Experiments were performed on hippocampal neurons (A=5.5-6.5 mm, L=1.5-2.0 mm, H=2.0-3.0 mm, according to Paxinos & Watson, 1986). Neuronal spike activity was evoked by iontophoretic application of AMPA for periods of 10 to 15 s with 1.5 min intervals. Single neuron spike activity was amplified 5000 times with a bandwidth of 0.3 and 3 kHz (CyberAmp 320 with a Al 402 x50 smartprobe, Axon Instruments, California, USA). On-line and off-line analyses were performed by the Spike2 program with a 1401 plus interface (Cambridge Electronic Design Limited, England). The computer program also recorded mean arterial blood pressure and monitored and controlled iontophoretic application. AMPA was ejected into hippocampus in regular cycles of 100-105 s. […] Recording of neuronal spike activity was continued for at least 45 min after intravenous injection. The PAM reactivity was tested by microiontophoretic application of COMPOUND 61 (20 nA, FIG.).

**Q.** For `NS(=O)(=O)c1cc2c(cc1Cl)NC(C1CC3C=CC1C3)NS2(=O)=O` (stereo not drawn) [cyclothiazide, reference compound], which “AMPA evoked spike activity” value is on record?
**A.** did not enhance

System: not given
Experiment: not given
Settings: not given

**Q.** With `CC(=O)Nc1ccccc1-c1ccc2c(c1)S(=O)(=O)NC(C1CCCCC1)N2` (stereo not drawn) [Compound 19, 3-Cyclohexyl-7-(2′-acetamidophenyl)-1,2,3,4-tetrahydro-1,2,4-benzothiadiazine-1,1-dioxide] as the compound, how does the melting point read?
**A.** 245 to 249 °C

**Q.** For `NS(=O)(=O)c1cc(Br)c2c(c1)S(=O)(=O)NC(C1CCCCC1)N2` (stereo not drawn) [Compound 101, 5-Bromo-3-cyclohexyl-7-sulfamoyl-1,2,3,4-tetrahydro-1,2,4-benzothiadiazine-1,1-dioxide], which melting point is on record?
**A.** 254 to 258 °C

**Q.** Which melting point does the source give for `COc1cc(C(F)(F)F)ccc1-c1ccc2c(c1)S(=O)(=O)NC(C1CCCCC1)N2` (stereo not drawn) [Compound 22, 3-Cyclohexyl-7-(2′-methoxy-4′-trifluoromethylphenyl)-1,2,3,4-tetrahydro-1,2,4-benzothiadiazine-1,1-dioxide] here?
**A.** 255 to 257 °C

**Q.** For `O=[N+]([O-])c1ccc2c(c1)S(=O)(=O)NC(C1CCCCC1)N2` (stereo not drawn) [Compound 40, 3-Cyclohexyl-7-nitro-1,2,3,4-tetrahydro-1,2,4-benzothiadiazine-1,1-dioxide], which melting point is on record?
**A.** 209 to 211 °C

**Q.** With `O=S1(=O)NC(C2CCCCC2)Nc2ccc3c(c21)OCCO3` (stereo not drawn) [Compound 122, 3-Cyclohexyl-7,8-ethylenedioxy-1,2,3,4-tetrahydro-1,2,4-benzothiadiazine-1,1-dioxide] as the compound, how does the melting point read?
**A.** 268 to 270 °C

**Q.** For `CC1NC(=O)c2ccccc2O1` (stereo not drawn) [Compound 3, 2-Methyl-3,4-dihydro-1,3-benzoxazine-4-one], which melting point is on record?
**A.** 124 to 126 °C

**Q.** Which melting point does the source give for `CN1c2ccc(S(=O)(=O)N3CCOCC3)cc2S(=O)(=O)NC1C1CCCCC1` (stereo not drawn) [Compound 86, 3-Cyclohexyl-4-methyl-7-morpholinosulfonyl-1,2,3,4-tetrahydro-1,2,4-benzothiadiazine-1,1-dioxide] here?
**A.** 207 to 210 °C

**Q.** For `O=S1(=O)NC(C2CCCCC2)Nc2ccc(-c3cccc(O)c3)cc21` (stereo not drawn) [Compound 27, 3-Cyclohexyl-7-(3′-hydroxyphenyl)-1,2,3,4-tetrahydro-1,2,4-benzothiadiazine-1,1-dioxide], which melting point is on record?
**A.** 238 to 246 °C

**Q.** With `O=S1(=O)NC(C2CCCC2)Nc2ccc(S(=O)(=O)N3CCCCC3)cc21` (stereo not drawn) [Compound 55, 3-Cyclopentyl-7-piperidinosulfonyl-1,2,3,4-tetrahydro-1,2,4-benzothiadiazine-1,1-dioxide] as the compound, how does the melting point read?
**A.** 258 to 260 °C

**Q.** Which melting point does the source give for `O=S1(=O)NC(C2CCCCC2)Nc2cc3c(cc21)OCCO3` (stereo not drawn) [Compound 118, 3-cyclohexyl-6,7-ethylenedioxy-1,2,3,4-tetrahydro-1,2,4-benzothiadiazine-1,1-dioxide] here?
**A.** 196 to 200 °C

**Q.** For `CN(C)S(=O)(=O)c1ccccc1-c1ccc2c(c1)S(=O)(=O)NC(C1CCCCC1)N2` (stereo not drawn) [Compound 24, 3-Cyclohexyl-7-(2′-(N,N-dimethylsulfamoyl)phenyl)-1,2,3,4-tetrahydro-1,2,4-benzothiadiazine-1,1-dioxide], which melting point is on record?
**A.** 290 to 300 °C

**Q.** With `O=C1NC(c2ccccc2)Oc2ccccc21` (stereo not drawn) [Compound 4, 2-Phenyl-3,4-dihydro-1,3-benzoxazine-4-one] as the compound, how does the melting point read?
**A.** 157 to 160 °C

**Q.** Which melting point does the source give for `CCC1(C)NC(=O)c2ccccc2O1` (stereo not drawn) [Compound 8, 2-Ethyl-2-methyl-3,4-dihydro-1,3-benzoxazine-4-one] here?
**A.** 76 to 78 °C

**Q.** With `CN1C(C2CCCCC2)Nc2ccc(S(=O)(=O)N3CCOCC3)cc2S1(=O)=O` (stereo not drawn) [Compound 85, 3-Cyclohexyl-2-methyl-7-morpholinosulfonyl-1,2,3,4-tetrahydro-1,2,4-benzothiadiazine-1,1-dioxide] as the compound, how does the melting point read?
**A.** 243 to 245 °C

**Q.** For `CS(=O)(=O)Nc1ccc2c(c1)S(=O)(=O)NC(C1CCCCC1)N2` (stereo not drawn) [Compound 39, 3-Cyclohexyl-7-methylsulfonylamino-1,2,3,4-tetrahydro-1,2,4-benzothiadiazine-1,1-dioxide], which melting point is on record?
**A.** 255 to 258 °C
